The values below come from patent US20240099295A1, “CELL TREATMENT AGENT” (AYA Inc., priority 2021, published 2024).

Holding throughout (assay type): cell-based
The subject of assay [1] is Chinese hamster fibroblast. Put plainly: Cell protective effect: cell survival during preservation (trypan blue excretion test). The note with it: Chinese hamster fibroblasts; same preservation experiments; values not given. On the procedure:
(§1) Using a normal serum-free cell culture solution without FBS or a Ringer's solution (Otsuka Pharmaceutical Co., Ltd., Lactec Injection, Japanese Pharmacopoeia, Sodium L-lactate Ringer's solution) as a conditioning solution for use, for example, in preservation and transportation of cells, sodium alginate (Na alginate) (Fuji Chemical Industry Co., Ltd. Snow Algin SSL, viscosity of 1% aqueous solution is 30 mPa·s at 20° C.) was added to the conditioning solution in the concentrations shown in Table 1 to prepare cell preservation solutions. To each cell preservation solution, the above-described cells were added at a concentration of 10^6 cells/ml to satisfy the conditions shown in Table 1, and the resultant solution was left to stand in a room at normal temperature (22° C.) for 24 hours, and then whether cells were alive or dead was determined, and rates of viable cells (average survival rate (%)) were calculated and compared. Cell viability was determined by the trypan blue excretion test that is the ordinary method of confirming cell viability. The excretion test was performed according to the method described in “Denizot F., et al., Rapid colorimetric assay for cell growth and survival. Modifications to the tetrazolium dye procedure giving improved sensitivity and reliability. J. Immunol. Methods, 89, 271-277 (1986)”. The results are of N=4.
(§2) The average survival rate (%) was determined in the same manner as in Experimental Example (1-1-1) except that the preservation conditions were changed to leaving still for 72 hours in a refrigerator at a set temperature of 4° C. The results are of N=4.

Assay [2] relates to Rat corneal epithelial cell. Described as above. Particulars: for Average survival rate at 72 hours: refrigerator 4° C.; for Average survival rate at 24 hours: normal temperature (22° C.). As to the method: as §1, §2
The average survival rate (%) of cells was determined in the same manner as in Experimental Example (1-1-1) except that dextran sulfate (dextran sulfate special grade reagent available from NACALAI TESQUE, INC.) was used instead of sodium alginate and the conditions were as shown in Table 3. The results are of N=4.
The average survival rate (%) of cells was determined in the same manner as in Experimental Example (1-2-1) except that the preservation conditions were changed to leaving still for 72 hours in a refrigerator at a set temperature of 4° C. and to conditions shown in Table 4. The results are of N=3 in the case of using a serum-free cell culture solution, and are of N=4 in the case of using a Ringer's solution.
The average survival rate (%) of cells was determined in the same manner as in Experimental Example (1-1-1) except that heparin sodium (Heparin Na Mochida, unfractionated heparin, available from Mochida Pharmaceutical Co., Ltd.) was used instead of alginic acid and the conditions were as shown in Table 5. The results are of N=4.
The average survival rate (%) of cells was determined in the same manner as in Experimental Example (1-3-1) except that the preservation conditions were changed to leaving still for 72 hours in a refrigerator at a set temperature of 4° C. and to conditions shown in Table 6. The results are of N=4.
The average survival rate (%) of cells was determined in the same manner as in Experimental Example (1-3-2) except that urinastatin (Miraclid injection solution, containing 2.5 million units, available from Mochida Pharmaceutical Co., Ltd.) was used as a proteolytic enzyme inhibitor instead of heparin sodium and the conditions were as shown in Table 7. The results are of N=4. “Unit (U)” in the unit of concentration (units/mL) of inhibitor a in Table 7 can be measured, for example, by the quantitative method of urinastatin in the Japanese Pharmacopoeia 15th revision. Specifically, absorbance at 405 nm of a sample solution is measured with a UV 240 spectrophotometer, and concentration of urinastatin can be calculated from a calibration curve prepared in advance. […]

Assay [3] concerns Rat corneal epithelial cell. Put plainly: Cell detaching and suspending effect under gentle shaking (Experimental Example 5). The note with it: cell culture solution containing 10% FBS, 37° C. As to the method: In the same manner as in Experimental Example 4, rat corneal epithelial cells were sufficiently adhered to the culture dish wall which is a scaffold.
To the culture solutions in the culture dish on which cultured cells obtained in the manner as described above had adhered, each active ingredient was added in a concentration shown in Table 14, or no active ingredient was added. Each culture dish was then placed on the base of a shaker (product name: Laboshaker Model BC-740, available from BIO CRAFT Corporation), the shaking intensity was set to the lowest level, and the shaking frequency was set to 4 times/min, and cells were cultured under normal cell culture conditions (37° C., CO2 concentration of 5%, humidity of 100%) for 24 hours while each culture dish was gently shaken. Then, detachment and suspension of cells after 24 hours of culturing was observed. For determination of detachment and suspension, whether cells were detached from the dish wall and suspended under shaking of the culture dish was observed, and the case where 90% or more of the cells were detached and suspended was determined as “detached and suspended”, and “detached and suspended” cells were marked with “∘” and “undetached and unsuspended” cells were marked with “x”. The results are of N=4.

The subject of assay [4] is rat corneal epithelial cells. Put plainly: Re-adhesion of detached and suspended cells to calcium phosphate film (F-actin fluorescent staining). The text has this:
Whether the cells having been detached and suspended as described above were re-adhered by calcium ions was examined. Part of the bottom of the culture dish was coated with a slurry of calcium phosphate fine powder mixed with distilled water and dried in an oven to separately prepare a culture dish in which a film of fine powder of calcium phosphate was stuck to the bottom of the dish. Then, to the culture dish with the calcium phosphate film and the culture dish without the film (control), a cell culture solution containing the detached and suspended cells as described above was added, the culture dishes were placed on the base of a shaker (product name: Laboshaker Model BC-740, available from BIO CRAFT Corporation), the shaking intensity was set to the lowest level, the shaking frequency was set to 4 times/min, and the cells were cultured under normal cell culture conditions (37° C., CO2 concentration of 5%, humidity of 100%) for 24 hours while the culture dishes were gently shaken. The culture solution in each culture dish was then removed, and the culture dishes were gently washed with 10% FBS cell culture solution, and then viable cells adhered to the inner wall of the culture dishes were observed under a microscope (inverted fluorescence/visible microscope with cooled CCD camera, IX83, available from Olympus Corporation) by the fluorescent staining method of F-actin using viable cell staining by a fluorescent dye (CytoPainter F-actin Staining Kit, available from Abcam). The fluorescent staining method of F-action can be performed, for example, according to the method described in Vera D M, Robert J E, Ved P S, Orrin S and John S C, “Optimizing leading edge F-actin labeling using multiple actin probes, fixation methods and imaging modalities” BIOTECHNIQUES, VOL. 66, NO. 3, (2019), or in Michael M, Matthias P and Robert G “Actin visualization at a glance” n J. Cell Sci. 130, 525-530. (2017) doi:10.1242/jcs.20448.
In FIGS. 1 to 4, the part that looks white or gray is a viable cell group stained with the fluorescent dye.

The mark [5] stands for this setting: culture dish with calcium phosphate film, 24 hours culture under gentle shaking (FIGS. 1 and 2).
Setting [6] is: culture dish without calcium phosphate film (control), 24 hours culture under gentle shaking (FIGS. 3 and 4).

In the case of dextran sulfate [DS], the “Effect of improving cell viability (cell protective effect)” value in assay [1] is “the cell protective effect was also observed”. For the same substance, the “Average survival rate at 72 hours” value in assay [2] (DS 0.003 mg/mL, Ringer's solution) worked out at 67%; in assay [2] (DS 0.003 mg/mL, serum-free cell culture solution, N=3), 76%; in assay [2] (DS 0.1 mg/mL, Ringer's solution), 71%; in assay [2] (DS 0.1 mg/mL, serum-free cell culture solution, N=3) it was 79%; in assay [2] (DS 1 mg/mL, Ringer's solution), 60%; in assay [2] (DS 1 mg/mL, serum-free cell culture solution, N=3), 73%. In addition, the “Average survival rate at 24 hours” value in assay [2] (DS 0.003 mg/mL, serum-free cell culture solution) is recorded as 62%; in assay [2] (DS 0.1 mg/mL, serum-free cell culture solution), 71%; in assay [2] (DS 1 mg/mL, serum-free cell culture solution), 73%. In assay [3] (DS 0.5 mg/mL), the “Detachment at lapse of 24 hours after addition of active ingredient” value was “∘ (“detached and suspended” cells were marked with “∘”)”. Further, the results for the “Re-adhesion of detached and suspended viable cells” value in assay [4] (setting [5]) and in assay [4] (setting [6]) were “numerous viable cells were observed adhering” and “a very small number of viable cells adhered”, respectively.
Regarding “heparin sodium [Heparin Na, reference compound]”, the “Effect of improving cell viability (cell protective effect)” value in assay [1] is “the cell protective effect was also observed”. The “Average survival rate at 72 hours” value stood at 70% in assay [2] (Heparin Na 5 units/mL, Ringer's solution); 72% in assay [2] (Heparin Na 25 units/mL, Ringer's solution); 74% in assay [2] (Heparin Na 125 units/mL, Ringer's solution). Further, the “Average survival rate at 24 hours” value in assay [2] (Heparin Na 5 units/mL, serum-free cell culture solution) is recorded as 69%; in assay [2] (Heparin Na 25 units/mL, serum-free cell culture solution) it was 75%; in assay [2] (Heparin Na 125 units/mL, serum-free cell culture solution), 76%. The “Detachment at lapse of 24 hours after addition of active ingredient” value in assay [3] (Heparin Na 100 units/mL) was “∘ (“detached and suspended” cells were marked with “∘”)”. The “Re-adhesion of detached and suspended viable cells” value in assay [4] (setting [5]) is “numerous viable cells were observed adhering”; in assay [4] (setting [6]), “a very small number of viable cells adhered”.
